Measured values from US8791079B2, “Methods for treating heart failure by inhibiting the mitochondrial sodium-calcium exchanger (mNCE)” (priority 2009, dated 2014).
“And” between values parts separate entries of the source, which are not always exact repeats. Equal entries are not always repeated. Marks after values point to notes of the source that are not given here.

Columns and labels:
[1] = tested on: Guinea pig hearts; assay: Arrhythmia score and ventricular fibrillation in isolated perfused hearts; settings: without or with CGP-37157; for Incidence of VF: hearts with VF / hearts, ouabain treatment and isoproterenol stimulation; for arrhythmia score: ten-minute ouabain treatment (0.25 μM), modified Score A, 0-4
Text: (§1) Guinea pig hearts were quickly excised under anesthesia and mounted on a modified Langendorff apparatus attached to a Powerlab system (AD Instruments, Colorado Springs, Colo.). Hearts were perfused with gassed (95/5% O2/CO2) control buffer containing: 118-mM NaCl, 24-mM NaHCO3, 1.2-mM KH2PO4, 4.75-mM KCl, 1.2-mM MgSO4, 2.0-mM CaCl2, and 10-mM glucose. A buffer-filled latex balloon (Harvard apparatus) was inserted through the mitral valve into the left ventricle. Hearts were suspended in a buffer-filled heating chamber maintained at 37° C. and two electrodes were placed into the bath for volume-conducted electrocardiogram recordings. Heart rate, left ventricular developed pressure (LVDP), maximal rates of contraction and relaxation (±dP/dt), oxygen consumption, and electrocardiograms (ECG) were recorded on a computer. After a ten-minute equilibration period, hearts were subjected to the following protocol: ten-minute baseline recording while the heart was perfused with control buffer, ten-minute recording while 0.25-μM ouabain with or without 1 μM CGP-37157, and sixty-minute recording while hearts were stimulated with 25-nM isoproterenol. The measurements of hemodynamic parameters were determined by taking the average during the last two minutes before ouabain treatment (baseline) and for two minutes during the maximal effect on LVDP of either ouabain or isoproterenol.
Arrhythmias were characterized in accordance with the Lambeth Conventions, see Walker, M. J., et al., Cardiovasc. Res., 22(7):447-455 (July 1988), and scores were tabulated for the ten-minute period of ouabain treatment using modified Score A as described by Curtis, M. J. and Walker, M. J., “Quantification of arrhythmias using scoring systems: an examination of seven scores in an in vivo model of regional myocardial ischaemia,” Cardiovasc. Res., 22(9):656-665 (September 1988). Briefly, each heart was given a score based on the following criteria: 0: <50 ventricular premature beats; 1: 50-499 ventricular premature beats; 2: >500 ventricular premature beats and/or one episode of spontaneously reverting ventricular tachycardia or ventricular fibrillation; 3: more than one episode of spontaneously reverting ventricular tachycardia or fibrillation (<2 min); 4: >2 min of ventricular tachycardia or fibrillation.

[2] = tested on: Guinea pig ventricular myocytes; assay: Action potentials and delayed afterdepolarizations in current-clamped myocytes; format: cell-based; settings: for incidence of DAD-triggered APs: 100-nM isoproterenol, 1-μM ouabain without or with 1-μM CGP-37157, 1 Hz, last minute of stimulation
Method: (§2) Guinea pig ventricular myocytes were isolated by enzymatic digestion as described previously. O'Rourke, B., et al., “Oscillations of membrane current and excitability driven by metabolic oscillations in heart cells,” Science, 265(5174):962-966 (Aug. 12, 1994). Cells were suspended in Dulbecco's Modification of Eagle's Medium (DMEM) supplemented with 5% fetal bovine serum, 1% penicillin/streptomycin, and 15 mmol/L HEPES, pH 7.4, and stored in a 5% CO2 incubator at 37° C.
Isolated ventricular myocytes were loaded into a heated field-stimulation chamber (Warner Instruments, Hamden, Conn.) at 37° C. on the stage of a fluorescence microscope (Nikon Eclipse TE300, Nikon Instruments, Inc., Melville, N.Y.). The myocytes were first superfused with control Tyrode's solution containing: NaCl (130 mmol/L), KCl (5 mmol/L), MgCl2 (1 mmol/L), Na-HEPES (10 mmol/L), CaCl2 (2 mmol/L), glucose (10 mmol/L), at pH 7.4. After one minute of recording in the absence of electrical stimulation in control buffer, 1-μM ouabain and 100-nM isoproterenol, with or without 1 μM CGP-37157, were added to buffer. After another five minutes of recording, myocytes were field-stimulated at 1 Hz for three minutes followed by a two-minute recording after returning to the resting state. To record [Ca^2+]m and action potentials, myocytes were whole-cell patch-clamped at 37° C. Tyrode's solution was used as external solution and the internal solution contained: NaCl (10 mmol/L), KCl (19 mmol/L), K-glutamate (125 mmol/L), MgCl2 (0.5 mmol/L), HEPES (10 mmol/L), MgATP (5 mmol/L), at pH 7.25.
In current-clamped myocytes, electrically-stimulated action potentials (APs) were recorded at 1 Hz and the probability of observing one or more delayed afterdepolarization-(DAD) triggered action potentials was determined during the last minute of stimulation.

[3] = tested on: Guinea pig ventricular myocytes; assay: ROS / oxidative stress (CM-H2DCFDA, CM-DCF oxidation) in isolated myocytes; format: cell-based; settings: 100-nM isoproterenol with 1-μM ouabain, without or with 1-μM CGP-37157; 1-Hz stimulation
Method: as §2
Cytosolic Ca^2+ ([Ca^2+]c), mitochondrial Ca^2+ ([Ca^2+]m), and [Na^+]i were measured with the fluorescent indicators indo-1, rhod-2, and sodium-binding benzofuran isophthalate (SBFI), respectively (Invitrogen, Carlsbad, Calif.), and mitochondrial NADH was measured as the cellular autofluorescence with 360-nm excitation/450-nm emission. Indo-1 was loaded into cell with the membrane permeable form, indo-1 AM. To minimize indo-1 loading into the mitochondrial compartment, cells were briefly incubated with indo-1 AM at room temperature for 20 min. Rhod-2 and SBFI experiments were carried out as previously described. Maack et al., supra, Liu and O'Rourke, supra. […]
Isolated ventricular myocytes were loaded into a heated field-stimulation chamber (Warner Instruments, Hamden, Conn.) at 37° C. on the stage of a fluorescence microscope (Nikon Eclipse TE300, Nikon Instruments, Inc., Melville, N.Y.). […]

[4] = tested on: Guinea pig hearts; assay: Hemodynamics of isolated perfused hearts (Langendorff)
Text: as §1
In Table 1A-1C, hemodynamics of isolated perfused hearts were recorded at baseline, with ouabain treatment (1 μM), and with ouabain plus isoproterenol (100 nM) stimulation with or without CGP-37157 (1 μM). HR, heart rate; LVDP, left ventricular developed pressure; Oua: ouabain; CGP: CGP-37157; VF: ventricular fibrillation. *p<0.05 compared to group without CGP; † p<0.05 compared to baseline.

[5] = 25-nM isoproterenol in ouabain-treated hearts, absence (isoproterenol) or presence of CGP-37157
[6] = at baseline, group with CGP-37157
[7] = ouabain application, without or with CGP-37157
[8] = with ouabain treatment (1 μM, 0.25-μM), −CGP = ouabain alone, +CGP = plus CGP-37157 1 μM
[9] = with ouabain treatment and isoproterenol stimulation, −CGP without, +CGP with CGP-37157 1 μM

Row | Compound | Incidence of VF [1] | arrhythmia score [1] | incidence of DAD-triggered APs [2] | oxidation of CM-DCF (oxidative stress) [3] | increase of +dP/dt compared to baseline [4, 7] | increase of −dP/dt compared to baseline [4, 7] | +dP/dt [4, 8] | HR [4, 8] | LVDP [4, 8] | −dP/dt [4, 8] | +dP/dt [4, 9] | HR [4, 9] | LVDP [4, 9] | other results
1 | O=C1CSC(c2ccccc2Cl)c2cc(Cl)ccc2N1 (centres unmarked) [CGP-37157, 7-chloro-5-(2-chlorophenyl)-1,5-dihydro-4,1-benzothiazepin-2(3H)-one] | 2 out of 7 | 1.1±0.4 | not significantly different from controls | abolished the increase in oxidative stress induced by ouabain | approximately 36% | approximately 23% | 3167 ± 481 † | 250.0 ± 13.4 | 100.7 ± 12.0 † | −2306 ± 218 † | 5530 ± 736 † * | 306.7 ± 22.8 † | 130.9 ± 18.4 † | Incidence of VF ([1]; listed as CGP): 2/7*; amplitude of DADs ([2]; ouabain plus CGP-37157 versus ouabain alone): smaller amplitude than in ouabain alone; increase of +dP/dt compared to the level with ouabain treatment [4, 5]: 75%; increase of LVDP compared to the level with ouabain treatment [4, 5]: 30%; increase of heart rate (HR) compared to the level with ouabain treatment [4, 5]: 23%; increase of −dP/dt compared to the level with ouabain treatment [4, 5]: 53%; +dP/dt [4, 6]: 2326 ± 303; HR [4, 6]: 239.3 ± 8.0; LVDP [4, 6]: 91.9 ± 10.6; −dP/dt [4, 6]: −1872 ± 163; −dP/dt [4, 9]: −3518 ± 419 †
2 | C[C@@H]1O[C@@H](O[C@H]2C[C@@H](O)[C@]3(CO)[C@H]4[C@H](O)C[C@]5(C)[C@@H](C6=CC(=O)OC6)CC[C@]5(O)[C@@H]4CC[C@]3(O)C2)[C@H](O)[C@H](O)[C@H]1O [ouabain, 1β,3β,5β,11α,14,19-Hexahydroxycard-20(22)-enolide 3-(6-deoxy-α-L-mannopyranoside, reference compound] | 7 out of 8 and 7/8 | 2.7±0.5 | significant increase in the incidence of DAD-triggered APs | higher rates of oxidation of CM-DCF | 20% | 4% | 2241 ± 376 † | 246.3 ± 20.3 | 106.0 ± 17.0 † | −1855 ± 229 † | 3529 ± 644 † | 315.3 ± 25.0 † | 100.4 ± 18.3 | increase of LVDP compared to baseline [4, 7]: 13%
